According to patent US20030108986A1, “Compositions and methods comprising G-protein coupled receptors” (Euroscreen, S.A., priority 2001, published 2003):

Legend:
GPCRx11 = biological target: T1, GPCRx11 (Homo sapiens, UniProt Q96LB1); assay: aequorin-based assay of GPCRx11 activation by angiopeptin; assay type: cell-based
T1 construct: expressed in transfected cells; host or cells: CHO-K1
T1 sequence (Q96LB1 1-330): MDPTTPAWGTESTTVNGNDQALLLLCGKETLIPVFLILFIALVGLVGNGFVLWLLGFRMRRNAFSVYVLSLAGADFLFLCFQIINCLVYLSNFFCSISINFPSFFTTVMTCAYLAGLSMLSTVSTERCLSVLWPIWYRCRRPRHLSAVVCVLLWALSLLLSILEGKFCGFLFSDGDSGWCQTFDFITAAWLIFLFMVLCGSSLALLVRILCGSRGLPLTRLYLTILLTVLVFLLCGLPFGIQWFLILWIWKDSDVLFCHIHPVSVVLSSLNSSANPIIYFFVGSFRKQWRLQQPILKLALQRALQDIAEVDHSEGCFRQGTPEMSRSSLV
Method: As used herein, the term “aequorin-based assay” refers to an assay for GPCR activity that measures elevations in intracellular calcium induced by activated GPCRs, wherein intracellular calcium flux is measured by the luminescence of mitochondiral aequorin expressed in the cell.
The aequorin assay takes advantage of the responsiveness of mitochondrial apoaequorin to intracellular calcium release induced by the activation of GPCRs (Stables et al., 1997, Anal. Biochem. 252:115-126; Detheux et al., 2000, J. Exp. Med., 192 1501-1508; both of which are incorporated herein by reference). Briefly, GPCR-expressing clones are transfected to coexpress mitochondrial apoaequorin and Gα16. Cells are incubated with 5 μM Coelenterazine H (Molecular Probes) for 4 hours at room temperature, washed in DMEM-F12 culture medium and resuspended at a concentration of 0.5×10^6 cells/ml. Cells are then mixed with test agonist, or ligand molecules and light emission by the aequorin is recorded with a luminometer for 30 sec. Results are expressed as Relative Light Units (RLU). Controls include assays using membranes isolated from cells not expressing GPCRs (mock transfected), in order to exclude possible non-specific effects of the candidate compound. […]

GPCRx11 (human) = GPCRx11 (human) (UniProt Q96LB1)

| Compound | ligand of the receptor GPCRx11 (GPCRx11; GPCRx11 (SEQ ID NO: 12)) | EC50 (GPCRx11; GPCRx11 polypeptide bound by angiopeptin, transfected CHO-K1 cells (FIG. 16), read-out: EC50 of stimulation of mitochondrial aequorin fluorescence) | EC50 (read off the curve); aequorin luminescence (RLU) in transfected CHO-K1 cells (GPCRx11 (human)) | EC50; aequorin luminescence (RLU) in transfected CHO-K1 cells (GPCRx11 (human)) |
| --- | --- | --- | --- | --- |
| CC(C)[C@@H]1NC(=O)[C@H](CCCCN)NC(=O)[C@@H](Cc2c[nH]c3ccccc23)NC(=O)[C@H](Cc2ccc(O)cc2)NC(=O)[C@@H](NC(=O)[C@H](N)Cc2ccc3ccccc3c2)CSSC[C@@H](C(=O)N[C@H](C(N)=O)[C@@H](C)O)NC1=O [angiopeptin] | natural ligand | ≤ 160 nM |  |  |
| angiopeptin (peptide) |  |  | 100 nM | 159 nM |
